Source: PubChem BioAssay (NCI)
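Following 48 hours of exposure in 96-well plates, responses at five concentrations were used to interpolate endpoints linearly. The concentration for full growth arrest is given as TGI.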

Assays:
Test in all cases: NCI-60 cell line screen, 48 h
[1] = tested on: 786-0 renal
[2] = tested on: A498 renal
[3] = tested on: A549 NSCLC
[4] = tested on: ACHN renal
[5] = tested on: BT-549 breast
[6] = tested on: CAKI-1 renal
[7] = tested on: CCRF-CEM leukemia
[8] = tested on: COLO 205 colon
[9] = tested on: DU-145 prostate
[10] = tested on: EKVX NSCLC
[11] = tested on: HCC-2998 colon
[12] = tested on: HCT-116 colon
[13] = tested on: HCT-15 colon
[14] = tested on: HL-60(TB) leukemia
[15] = tested on: HOP-62 NSCLC
[16] = tested on: HOP-92 NSCLC
[17] = tested on: HS 578T breast
[18] = tested on: HT29 colon
[19] = tested on: IGROV1 ovarian
[20] = tested on: KM12 colon
[21] = tested on: LOX IMVI melanoma
[22] = tested on: M14 melanoma
[23] = tested on: MALME-3M melanoma
[24] = tested on: MCF7 breast
[25] = tested on: MDA-MB-231 breast
[26] = tested on: MDA-MB-435
[27] = tested on: MDA-N
[28] = tested on: MOLT-4 leukemia
[29] = tested on: NCI-H226 lung
[30] = tested on: NCI-H23 lung
[31] = tested on: NCI-H460 lung
[32] = tested on: NCI-H522 lung
[33] = tested on: NCI/ADR-RES ovarian
[34] = tested on: OVCAR-3 ovarian
[35] = tested on: OVCAR-4 ovarian
[36] = tested on: OVCAR-5 ovarian
[37] = tested on: OVCAR-8 ovarian
[38] = tested on: PC-3 prostate
[39] = tested on: RPMI-8226 leukemia
[40] = tested on: SF-268 CNS
[41] = tested on: SF-295 CNS
[42] = tested on: SF-539 CNS
[43] = tested on: SK-MEL-2 melanoma
[44] = tested on: SK-MEL-28 melanoma
[45] = tested on: SK-MEL-5 melanoma
[46] = tested on: SK-OV-3 ovarian
[47] = tested on: SN12C renal
[48] = tested on: SNB-19 CNS
[49] = tested on: SNB-75 CNS
[50] = tested on: SR leukemia
[51] = tested on: SW-620 colon
[52] = tested on: T-47D breast
[53] = tested on: TK-10 renal
[54] = tested on: U251 CNS
[55] = tested on: UACC-257 melanoma
[56] = tested on: UACC-62 melanoma
[57] = tested on: K-562 leukemia
[58] = tested on: RXF 393 renal

Measured: TGI

COC(=O)c1ccc(Nc2nc3nc[nH]c3c(=O)[nH]2)cc1
not listed: [57] | [58]
> 100 µM: all other assays above

Cc1cc(N2CCN(C)CC2)n2nc(-c3ccc(Cl)cc3)nc2n1
not listed: [11]
> 100 µM: all other assays above
